Consider 1 molecule from patent US20080027088A1, “Imidazole-Based Hmg-Coa Reductase Inhibitors” (Warner-Lambert Company, LLC, priority 2004, published 2008).

Experiment [1] deals with T1, serine palmitoyltransferase (SPT) (Mus musculus, UniProt O35704+P97363).
T1 construct: from tissue; host or cells: mouse liver (ApoE KO and C57Bl/6J mice), cell-free homogenate
T1 sequence (P97363 1-560): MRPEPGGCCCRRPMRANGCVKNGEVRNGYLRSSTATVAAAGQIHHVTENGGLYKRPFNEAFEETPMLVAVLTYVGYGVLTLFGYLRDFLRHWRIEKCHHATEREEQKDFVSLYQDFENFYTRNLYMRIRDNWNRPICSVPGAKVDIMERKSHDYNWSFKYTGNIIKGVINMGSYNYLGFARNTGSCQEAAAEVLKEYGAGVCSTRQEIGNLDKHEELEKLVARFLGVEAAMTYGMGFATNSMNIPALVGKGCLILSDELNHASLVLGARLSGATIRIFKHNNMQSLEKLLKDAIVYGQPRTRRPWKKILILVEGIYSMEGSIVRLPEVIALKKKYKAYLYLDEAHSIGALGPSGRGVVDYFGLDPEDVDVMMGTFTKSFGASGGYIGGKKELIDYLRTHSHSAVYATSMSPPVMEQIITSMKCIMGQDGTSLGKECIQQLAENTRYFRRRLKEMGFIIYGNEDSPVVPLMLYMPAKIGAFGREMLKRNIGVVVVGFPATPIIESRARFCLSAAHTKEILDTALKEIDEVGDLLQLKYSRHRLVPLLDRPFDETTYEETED
T1 sequence (O35704 1-473): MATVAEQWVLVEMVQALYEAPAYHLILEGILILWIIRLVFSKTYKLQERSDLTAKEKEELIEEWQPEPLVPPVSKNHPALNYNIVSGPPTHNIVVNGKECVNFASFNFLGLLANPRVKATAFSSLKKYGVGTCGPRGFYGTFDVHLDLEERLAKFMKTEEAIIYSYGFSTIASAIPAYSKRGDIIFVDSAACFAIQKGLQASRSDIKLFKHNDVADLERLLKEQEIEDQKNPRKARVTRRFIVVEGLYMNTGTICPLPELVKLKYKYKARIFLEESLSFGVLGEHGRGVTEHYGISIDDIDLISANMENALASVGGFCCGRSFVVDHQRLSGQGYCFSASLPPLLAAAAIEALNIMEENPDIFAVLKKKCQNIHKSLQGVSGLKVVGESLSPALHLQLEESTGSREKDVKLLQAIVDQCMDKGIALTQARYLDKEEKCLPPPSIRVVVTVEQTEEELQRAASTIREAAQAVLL
T1 sequence (Q8R207 1-71 partner): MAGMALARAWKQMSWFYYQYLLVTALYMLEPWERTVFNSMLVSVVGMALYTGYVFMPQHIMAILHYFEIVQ
Put plainly: SPT activity of liver cell-free homogenate (14C-serine, palmitoyl CoA, TLC). The class given is in vivo, mice. The conditions noted are these: 0.3 mg/kg/day, 12 weeks. The method, then:
Liver tissues from each group were homogenized and SPT activity was measured using ^14C-serine and palmitoyl CoA as substrates and thin-layer chromatography (TLC) analysis (K. Gable et al., J. Biol. Chem. 2000;275(11):7597-603). FIGS. 1-A, 1-B, 1-C, 1-D and 1-E. SPT gene expression and enzyme activity. Mice were treated with 0.3 mg/kg/day myriocin for 12 weeks by mixing with Western diet chow. Liver was isolated and total mRNA and cell-free homogenate were prepared. SPT mRNA expression was quantified by quantitative RT-PCR. Expression was described as a ratio of LCB1 (A) or LCB2 (B) mRNA to 18s RNA or to rodent GAPDH RNA (n=5, P>0.05). SPT activity of cell-free homogenate (C) was measured with ^14C-labeled Serine and palmitoyl-coenzyme A as substrates and analyzed by TLC. Relative amounts of 3-ketosphinganine were determined by densitometry scanning. The values reported are mean±SEM (n=3, *P<0.05).

The subject of experiment [2] is ApoE KO mice fed a Western diet. Put plainly: Plasma SM/PC ratio (HPLC) and ceramide (LC/MS/MS), 12 weeks. The class given is in vivo. The note with it: 0.3 mg/kg/day. An excerpt:
Analysis of Sphingolipids and Phospholipids by LC/MS and HPLC-Total lipids were extracted by the modified method of Bligh-Dyer extraction (E. G. Bligh and W. J. Dyer, Can. J. Med. Sci. 1959;37:911-917; and D. K. Perry, A. Bielawska and Y. A. Hannun, Methods Enzymol. 2000;312:22-31). A Micromass (Waters Corp., Milford, Mass.) Quattro Ultima tandem quadrupole mass spectrometer with a standard Z-sprayTM ion source, set to electrospray positive ionization mode, with MassLynxTM version 3.5 operating software, was used for all quantitative determinations. Source conditions were typically as follows: capillary 3.5 kV, source temperature 110 degrees C., and desolvation temperature 325 degrees C. […] The following ion transitions were used for quantification: sphingomyelin (704→184 m/z), sphinganine (302→284 m/z), ceramide (566→264 m/z) and psychosine (462→282 m/z) as an internal standard. […] For the quantitative method, the analytical column was a Phenomenex (Torrance, Calif.) Polar-RP (2.0×150 mm, 4 μm) with a […] […] Lipid extracts were analyzed by HPLC and evaporative light scattering detector to determine plasma sphingomyelin and phosphatidylcholine (PC) levels (R. Homan and M.K. Anderson, J. Chromatogr. B. Biomed. Sci. Appl. 1998;708:21-6). […] Plasma concentrations of SM and PC were determined, and SM/PC ratio (FIG. 13A) was calculated using HPLC. […]

As for `CCCCCCC(=O)CCCCCC/C=C/C[C@@H](O)[C@H](O)[C@@](N)(CO)C(=O)O` [myriocin], the “decrease of SPT activity in the liver” value turned out to be 48% in experiment [1] (compared with the C57BI/6J control group) and 66% in experiment [1] (compared with untreated Western diet-fed ApoE KO mice). In experiment [2], the “plasma ceramide levels reduced” value turned out to be 60%. For the same molecule, in experiment [2] (vs Western diet-fed group), the “effect on plasma SM/PC ratio” value is on record as “did not affect”.
